# The supplement of paper PMC11061612
# Tests used:
# [1] = compound: CC(C)n1c(=O)n(C)c2cnc3cc(F)c(-c4ccc(OCCCN5CCCCC5)nc4)cc3c21 [AZD1390]; conditions: max 0.3 µM
# Procedure, shortened: (§1)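 Plates with 1536 wells received cancer cell lines in 7.5 μl of DMEM/F12 or RPMI containing 10% FBS. After 24 hours at 37°C and 5% CO2, cells were dosed for 72 hours with final DMSO typically 0.2%, and viability was read by CellTiter-Glo 2.0 luminescence scaled between blank-well and DMSO-well means. The single-agent IC50 was taken from a logistic fit of the dose responses made with a non-linear mixed effects model, that logistic curve having two parameters.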
# [2] = compound: CC(=O)c1c(C)c2cnc(Nc3ccc(N4CCNCC4)cn3)nc2n(C2CCCC2)c1=O [Palbociclib]; conditions: max 10 µM
# Procedure, shortened: as §1
# [3] = compound: Nc1ccn([C@@H]2O[C@H](CO)[C@@H](O)C2(F)F)c(=O)n1 [Gemcitabine]; conditions: max 0.3 µM
# Procedure, shortened: as §1
# [4] = compound: COc1cccc2c1C(=O)c1c(O)c3c(c(O)c1C2=O)C[C@@](O)(C(=O)CO)C[C@@H]3O[C@H]1C[C@H](N)[C@H](O)[C@H](C)O1 [Doxorubicin]; conditions: max 1 µM
# Procedure, shortened: as §1
# [5] = compound: CC1(C)CCC(CN2CCN(c3ccc(C(=O)NS(=O)(=O)c4ccc(NCC5CCOCC5)c([N+](=O)[O-])c4)c(Oc4cnc5[nH]ccc5c4)c3)CC2)=C(c2ccc(Cl)cc2)C1 [Venetoclax]; conditions: max 1 µM
# Procedure, shortened: as §1
# [6] = compound: COc1nnc2ccc(N3CCC(c4ccc(OCCN5CCN(C)C(=O)[C@H]5C)cc4)CC3)nn12 [AZD5153]; conditions: max 1 µM
# Procedure, shortened: as §1
# [7] = compound: Cc1cc2ncnn2cc1Nc1ncc2c(n1)n(C1CCOCC1)c(=O)n2C [AZD7648]; conditions: max 10 µM
# Procedure, shortened: as §1
# [8] = compound: CN(CC[C@H](CSC1=CC=CC=C1)NC2=C(C=C(C=C2)S(=O)(=O)NC(=O)C3=CC=C(C=C3)N4CCC(CC4)[C@H](C5=CC=CC=C5C6=CC=C(C=C6)Cl)O)S(=O)(=O)C(F)(F)F)CCO [AZD4320]; conditions: max 1 µM
# Procedure, shortened: as §1
# [9] = compound: C[C@@H](c1ccc2nccn2c1)n1nnc2ncc(-c3cnn(C)c3)nc21 [Savolitinib]; conditions: max 1 µM
# Procedure, shortened: as §1
# [10] = compound: C=CCn1c(=O)c2cnc(Nc3ccc(N4CCN(C)CC4)cc3)nc2n1-c1cccc(C(C)(C)O)n1 [AZD1775]; conditions: max 3 µM
# Procedure, shortened: as §1
# [11] = compound: N#Cc1cnc(Nc2cc(NC[C@H]3CNCCO3)c(C(F)(F)F)cn2)cn1 [SRA737]; conditions: max 10 µM
# Procedure, shortened: as §1
# [12] = compound: COc1cc2ncnc(Nc3ccc(F)c(Cl)c3)c2cc1OCCCN1CCOCC1 [Gefitinib]; conditions: max 10 µM
# Procedure, shortened: as §1
# [13] = compound: NC1(c2ccc(-c3nc4ccn5c(=O)[nH]nc5c4cc3-c3ccccc3)cc2)CCC1 [MK-2206]; conditions: max 10 µM
# Procedure, shortened: as §1
# [14] = compound: C[C@@H](Oc1cc(-c2cnn(C3CCNCC3)c2)cnc1N)c1c(Cl)ccc(F)c1Cl [Crizotinib]; conditions: max 10 µM
# Procedure, shortened: as §1
# [15] = compound: C1CN(CCC1(C(=O)N[C@@H](CCO)C2=CC=C(C=C2)Cl)N)C3=NC=NC4=C3C=CN4 [AZD5363]; conditions: max 10 µM
# Procedure, shortened: as §1
# [16] = compound: COc1cc(Nc2ncc3c(n2)-c2ccc(Cl)cc2C(c2c(F)cccc2OC)=NC3)ccc1C(=O)O [Alisertib]; conditions: max 10 µM
# Procedure, shortened: as §1
# [17] = compound: Cc1nc(-c2cn3c(n2)-c2ccc(-c4cnn(C(C)(C)C(N)=O)c4)cc2OCC3)n(C(C)C)n1 [Taselisib]; conditions: max 10 µM
# Procedure, shortened: as §1
# [18] = compound: CC1=C(C(=CC=C1)Cl)NC(=O)C2=CN=C(S2)NC3=CC(=NC(=N3)C)N4CCN(CC4)CCO [Dasatinib]; conditions: max 2 µM
# Procedure, shortened: as §1
# [19] = compound: CC(=O)Nc1cccc(-n2c(=O)n(C3CC3)c(=O)c3c(Nc4ccc(I)cc4F)n(C)c(=O)c(C)c32)c1 [Trametinib]; conditions: max 1 µM
# Procedure, shortened: as §1
# [20] = compound: Cn1cnc2c(F)c(Nc3ccc(Br)cc3Cl)c(C(=O)NOCCO)cc21 [Selumetinib]; conditions: max 10 µM
# Procedure, shortened: as §1
# [21] = compound: COc1cc([C@@H]2c3cc4c(cc3[C@@H](O[C@@H]3O[C@@H]5CO[C@@H](C)O[C@H]5[C@H](O)[C@H]3O)[C@H]3COC(=O)[C@H]23)OCO4)cc(OC)c1O [Etoposide]; conditions: max 10 µM
# Procedure, shortened: as §1
# [22] = compound: O=C(Nc1ccc2[nH]nc(-c3ccncc3)c2c1)[C@@H]1CCN(CC(=O)N2CCN(c3ccc(-c4ncccn4)cc3)CC2)C1; conditions: max 5 µM
# Procedure, shortened: as §1
# [23] = compound: CN(C)CCCOc1ccc(-c2ccc3ncc4c(c3c2)n(C2CCOCC2)c(=O)n4C)cn1 [AZD0156]; conditions: max 3 µM
# Procedure, shortened: as §1
# [24] = compound: C[C@@H]1COCCN1C2=NC(=NC(=C2)C3(CC3)[S@](=N)(=O)C)C4=C5C=CNC5=NC=C4 [AZD6738]; conditions: max 10 µM
# Procedure, shortened: as §1
# [25] = compound: CC1=CN2[C@@H](C1)C=NC3=CC(=C(C=C3C2=O)OC)OCCCCCOC4=C(C=C5C(=C4)N=C[C@@H]6CC(=CN6C5=O)C)OC [SG3199]; conditions: max 0.001 µM
# Procedure, shortened: as §1
# [26] = compound: CC(=O)O[C@H]1C(=O)[C@@]2(C)[C@H]([C@H](OC(=O)c3ccccc3)[C@]3(O)C[C@H](OC(=O)[C@H](O)[C@@H](NC(=O)c4ccccc4)c4ccccc4)C(C)=C1C3(C)C)[C@]1(OC(C)=O)CO[C@@H]1C[C@@H]2O [Paclitaxel]; conditions: max 3 µM
# Procedure, shortened: as §1
# [27] = compound: COc1cccc(OCCCN)c1-c1cc(Nc2cnc(C#N)cn2)n[nH]1 [Prexasertib]; conditions: max 1 µM
# Procedure, shortened: as §1
# [28] = compound: Cc1c2c(nn1C)CSCc1cc(n(C)n1)CSc1cc(c3ccccc3c1)OCCCc1c(C(=O)O)n(C)c3c-2c(Cl)ccc13 [AZD5991]; conditions: max 1 µM
# Procedure, shortened: as §1
# [29] = compound: O=C(c1cc(Cc2n[nH]c(=O)c3ccccc23)ccc1F)N1CCN(C(=O)C2CC2)CC1 [Olaparib]; conditions: max 10 µM
# Procedure, shortened: as §1
# [30] = compound: O=c1[nH]cc(F)c(=O)[nH]1 [5-Fluorouracil]; conditions: max 20 µM
# Procedure, shortened: as §1
# [31] = compound: CS(=O)(=O)CCNCc1ccc(-c2ccc3ncnc(Nc4ccc(OCc5cccc(F)c5)c(Cl)c4)c3c2)o1 [Lapatinib]; conditions: max 10 µM
# Procedure, shortened: as §1
# [32] = compound: C1CC(C1)(C(=O)[O-])C(=O)[O-].N.N.[Pt+2] [Carboplatin]; conditions: max 10 µM
# Procedure, shortened: as §1
# [33] = compound: CCN(CCO)CCCOc1ccc2c(Nc3cc(CC(=O)Nc4cccc(F)c4)[nH]n3)ncnc2c1 [AZD2811]; conditions: max 1 µM
# Procedure, shortened: as §1
# [34] = compound: CCc1c2c(nc3ccc(O)cc13)-c1cc3c(c(=O)n1C2)COC(=O)[C@]3(O)CC [SN-38]; conditions: max 0.3 µM
# Procedure, shortened: as §1
# [35] = compound: C[C@@H](Nc1cc(F)cc(F)c1)c1cc(C(=O)N(C)C)cc2c(=O)cc(N3CCOCC3)oc12 [AZD8186]; conditions: max 10 µM
# Procedure, shortened: as §1
Cell Line,"IC50, cell viability 72 h [1]","IC50, cell viability 72 h [2]","IC50, cell viability 72 h [3]","IC50, cell viability 72 h [4]","IC50, cell viability 72 h [5]","IC50, cell viability 72 h [6]","IC50, cell viability 72 h [7]","IC50, cell viability 72 h [8]","IC50, cell viability 72 h [9]","IC50, cell viability 72 h [10]","IC50, cell viability 72 h [11]","IC50, cell viability 72 h [12]","IC50, cell viability 72 h [13]","IC50, cell viability 72 h [14]","IC50, cell viability 72 h [15]","IC50, cell viability 72 h [16]","IC50, cell viability 72 h [17]","IC50, cell viability 72 h [18]","IC50, cell viability 72 h [19]","IC50, cell viability 72 h [20]","IC50, cell viability 72 h [21]","IC50, cell viability 72 h [22]","IC50, cell viability 72 h [23]","IC50, cell viability 72 h [24]","IC50, cell viability 72 h [25]","IC50, cell viability 72 h [26]","IC50, cell viability 72 h [27]","IC50, cell viability 72 h [28]","IC50, cell viability 72 h [29]","IC50, cell viability 72 h [30]","IC50, cell viability 72 h [31]","IC50, cell viability 72 h [32]","IC50, cell viability 72 h [33]","IC50, cell viability 72 h [34]","IC50, cell viability 72 h [35]"
LK-2 (Squamous Cell Lung Carcinoma),> 0.3 µM,> 10 µM,0.277 µM,> 1 µM,> 1 µM,> 1 µM,> 10 µM,> 1 µM,> 1 µM,0.295 µM,> 10 µM,> 10 µM,> 10 µM,5.71 µM,> 10 µM,0.0606 µM,> 10 µM,> 2 µM,0.349 µM,> 10 µM,9.26 µM,1.93 µM,> 3 µM,> 10 µM,> 0.001 µM,0.00555 µM,0.137 µM,> 1 µM,> 10 µM,> 20 µM,> 10 µM,> 10 µM,0.0551 µM,0.199 µM,> 10 µM
MFE-280 (Endometrial Carcinoma),> 0.3 µM,> 10 µM,> 0.3 µM,> 1 µM,> 1 µM,> 1 µM,> 10 µM,> 1 µM,> 1 µM,> 3 µM,> 10 µM,> 10 µM,3.59 µM,> 10 µM,> 10 µM,4.94 µM,0.177 µM,> 2 µM,> 1 µM,> 10 µM,7.53 µM,> 5 µM,> 3 µM,> 10 µM,> 0.001 µM,0.533 µM,> 1 µM,> 1 µM,> 10 µM,> 20 µM,> 10 µM,> 10 µM,> 1 µM,0.198 µM,> 10 µM
MKN45 (Gastric Carcinoma),> 0.3 µM,9.41 µM,0.0536 µM,0.544 µM,> 1 µM,0.719 µM,> 10 µM,> 1 µM,0.0131 µM,0.497 µM,3.61 µM,> 10 µM,5.47 µM,0.0827 µM,> 10 µM,> 10 µM,6.45 µM,> 2 µM,0.0599 µM,5.84 µM,> 10 µM,0.821 µM,> 3 µM,2.73 µM,> 0.001 µM,0.0435 µM,0.0197 µM,> 1 µM,> 10 µM,> 20 µM,> 10 µM,> 10 µM,> 1 µM,0.0329 µM,> 10 µM
NB12 (Neuroblastoma),> 0.3 µM,> 10 µM,0.0574 µM,,0.333 µM,0.217 µM,> 10 µM,0.0311 µM,> 1 µM,0.731 µM,> 10 µM,> 10 µM,7.04 µM,9.85 µM,> 10 µM,,0.968 µM,> 2 µM,> 1 µM,> 10 µM,> 10 µM,> 5 µM,> 3 µM,> 10 µM,,0.015 µM,,> 1 µM,> 10 µM,> 20 µM,> 10 µM,> 10 µM,0.342 µM,0.00661 µM,> 10 µM
PC-3_[JPC-3] (Lung Adenocarcinoma),> 0.3 µM,> 10 µM,0.23 µM,> 1 µM,> 1 µM,> 1 µM,> 10 µM,> 1 µM,> 1 µM,> 3 µM,> 10 µM,,> 10 µM,> 10 µM,> 10 µM,> 10 µM,> 10 µM,0.853 µM,> 1 µM,> 10 µM,> 10 µM,> 5 µM,> 3 µM,> 10 µM,> 0.001 µM,0.416 µM,> 1 µM,> 1 µM,> 10 µM,> 20 µM,5.12 µM,> 10 µM,> 1 µM,0.0359 µM,> 10 µM
SK-MEL-2 (Melanoma),> 0.3 µM,> 10 µM,> 0.3 µM,,> 1 µM,0.345 µM,> 10 µM,> 1 µM,> 1 µM,> 3 µM,> 10 µM,> 10 µM,> 10 µM,> 10 µM,> 10 µM,,> 10 µM,> 2 µM,0.0324 µM,3.99 µM,> 10 µM,0.716 µM,> 3 µM,> 10 µM,,0.402 µM,,0.343 µM,> 10 µM,> 20 µM,> 10 µM,> 10 µM,> 1 µM,> 0.3 µM,> 10 µM
